Like-named read-outs stand apart in the source and are kept apart here.
Legend:
[1] = tested on: NMDA-induced focal potentials, hippocampal slices; experiment: In Vitro Hippocampal Slice Assay (NMDA-induced focal potentials); assay type: cell-based, Sprague-Dawley albino rat; details: Rattus norvegicus; 100 μM NMDA pressure ejections, recorded in CA1
Description: Hippocampal slices were prepared from male, Sprague-Dawley albino rats (100-300 gm) and maintained as described previously [Ganong, A. H., Lanthorn, T. H., Cotman, C. W., "Kynurenic Acid Synaptic and Acidic Amino Acid-Induced Responses in the Rat Hippocampus and Spinal Cord", Brain Research, 273 170-174 (1983)]. The hippocampus was removed in the cold and sliced to a thickness of 450 microns on a McIlwain tissue chopper in experimental medium (124 mM NaCl, 2.5 mM KCl, 1.0 mM KH2 PO4, 26.4 mM NaHCO3, 2 mM CaCl2, 1.5 mM MgSO4, and 10 mM D-glucose) with 10 mM Hepes. The slices were quickly transferred to a static bath and rinsed with experimental medium (without Hepes) and maintained at 34°-35° C. in a humidified chamber with 95% oxygen and 5% carbon dioxide. As needed, slices were transferred from the static bath to a small perfusion chamber where they were secured with an upper net and completely submerged in a continuously flowing experimental medium (2.0 ml/min). The Schaffer collateral/commissural-CAl (S/C-CAl) synaptic response was stimulated (0.05 Hz; 0.01 msec. single duration shock) with bipolar electrodes (Rhodes, Inc.) from stratum radiatum at the CA2-CA3 border. Evoked field EPSPs and drug-induced focal potentials were recorded in the middle portion of CAl. […]

CD-1 mouse = experiment: In Vivo 3-MPA-Induced Convulsions (tonic hindlimb extension); details: Mus musculus
Description: In the CD-1 mouse, i.p. injection of 3-MPA produces clonic seizures, tonic hindlimb extension and death. Seizures begin within 2-3 minutes after injection. The dose-response for induction of tonus by 3-MPA is unusual. The incidence of tonus increases rapidly from 35 to 50 mg/kg and remains constant at a less than maximal level over a broad dose range. 3-MPA doses from 50 to 150 mg/kg produce tonus in approximately 75% of the treated mice. The incidence of death over this dose range is variable and less than maximal.
In order to test for antagonism of 3-MPA-induced tonus, the lowest dose of 3-MPA that produced tonus consistently in 75% of the animals (50 mg/kg i.p.) was chosen. Test compounds were administered subcutaneously 30-40 minutes prior to i.p. administration of 3-MPA. Immediately after 3-MPA administration, each mouse was placed in a small cage made of steel rods. The mice were then observed for the presence or absence of tonic hindlimb extension. Reduction (from 75%) in the incidence of tonic hindlimb extension was considered protection from 3-MPA-induced convulsions. The dose of the test compound varied using groups of ten mice per dose until dose response curves are constructed, and ED50 's are calculated.

NC(C(=O)O)c1ccc(CP(=O)(O)O)cc1 (stereo not drawn) [Example VI, 4-(Phosphonomethyl)phenylglycine]
IC50 [1]: 4 µM
ED50 (CD-1 mouse; po, i.g., 3-MPA 50 mg/kg i.p., read-out: 3-MPA Convulsions i.g. (ED50)): 300 mg/kg
ED50 (CD-1 mouse; sc, s.c. 30-40 minutes prior to 3-MPA 50 mg/kg i.p., read-out: 3-MPA Convulsions s.c. (ED50)): 6 mg/kg
